Read-outs that look alike come from different tables or passages of the source.
Legend:
Assay type in all cases: in vivo, human
[1] = system: Ki67; assay: Pharmacodynamics: Ki67 levels post-treatment; conditions: across all dose levels post-treatment
Experimental: (§1) Methods were used to analyze whether H3B-6545 inactivates both wild-type and mutant ERα by targeting cysteine 530 and enforcing a unique antagonist conformation. Methods: Women with locally advanced or metastatic HR+BC are treated (tx) with H3B-6545 drug product administered once daily orally by capsule over a 28 day cycle after progression on at least one hormonal therapy and at least one additional therapy/regimen. Dose escalation uses a 3+3 design with the option to backfill previously cleared doses and allows for intrapatient dose escalation. This example explored the safety, pharmacokinetics and pharmacodynamics of H3B-6545 in women with HR+BC to identify a recommended subsequent dose for testing.

[2] = Plasma PK of 450 mg capsules in fasted and fed patients, dose expansion; conditions: 450 mg QD capsules; for CLss/F / AUC(0-inf) / Cmax / half-life / AUC(0-t) / Vd / Vd/F: Geometric Mean (GeoCV %); for Tlag / Tmax: Median (Min, Max); for AUC0-24 (per 1 mg of API) / AUC0-inf (per 1 mg of API) / AUC0-t (per 1 mg of API) / Cmax (per 1 mg of API): normalized from Table 13; for AUC(0-inf) / Cmax / half-life / AUC(0-t) / Vd / Vd/F / Tmax: human, plasma, oral, 450 mg; for Vd: read-out: Vss; for Vd/F: read-out: Vz/F
Experimental: Blood samples were collected at the planned time points from each patient and centrifuged. The plasma portion of each sample was then transferred to a K2EDTA tube, which was then shipped to a bioanalytical lab for concentration measurement using LC-MS/MS. The concentration data were then analyzed using Phoenix® WinNonlin software to obtain PK parameters. The obtained PK parameters were further summarized using analytical software.
Blood samples (approximately 5 mL each) were collected from human patients pre-dose and at various hourly time points post-dose. Plasma concentrations of H3B-6545 were determined using a validated high-performance liquid chromatography/tandem mass spectrometry (LC-MS/MS) method. The lower limit of quantification was 0.100 ng/mL.
The PK Analysis Set included subjects who received H3B-6545 drug product in capsules or tablets and had sufficient evaluable plasma concentration data to derive at least 1 primary PK parameter in each treatment. Plasma concentrations of H3B-6545 (as free base) were tabulated and summarized at each nominal time using descriptive statistics (number of subjects, arithmetic mean with standard deviation [SD], coefficient of variation [CV %], geometric mean, median, minimum, and maximum) as appropriate. Individual and mean (±SD) plasma concentration-time profiles were provided for each treatment.
Pharmacokinetic parameters of H3B-6545 were calculated using noncompartmental methods, using an appropriate model for plasma data and extravascular administration. The PK parameters included, but were not limited to, area under the curve to the time of the last quantifiable concentration (AUC0-t), maximum concentration (Cmax), and time at which the maximum concentration occurred (tmax). If data permitted, the area under the plasma concentration-time curve extrapolated to infinity (AUC0-inf), terminal elimination half-life (t1/2), apparent total body clearance (CL/F), total systemic clearance after oral administration at steady state (CLss/F), apparent volume of distribution during the terminal phase (Vz/F), apparent steady-state volume of distribution (Vss), accumulation ratio for Cmax (RCmax) and accumulation ratio of AUC0-24 (RAUC) were also derived.
Table 3 details PK parameters and profiles of human patients receiving capsules prepared as in Example 1. Patients received a total equivalent dosage of 450 mg of Formula I, as identified in Table 13. Table 14 has normalized the AUC0-t, AUC0-24, AUC0-inf and Cmax PK parameters illustrated in Table 13 to plasma PK parameters per 1 mg of active pharmaceutical ingredient (API).

[3] = system: ER target gene expression; assay: Pharmacodynamics: ER target gene expression; conditions: patients, 100 to 450 mg/day
Experimental: as §1

[4] = system: locally advanced or metastatic ER+HER2−BC; assay: Tumor response and progression-free survival, phase 1 dose escalation; conditions: as of 10 Dec. 2018; 32 patients, 100 to 450 mg/day
[5] = Plasma PK of H3B-6545 capsules in fasted patients, phase 1 dose escalation; conditions: 100 to 450 mg; as of 10 Dec. 2018

CN(C)C(=O)/C=C/CNCCOc1ccc(/C(=C(/CC(F)(F)F)c2ccccc2)c2ccc3[nH]nc(F)c3c2)cn1 [H3B-6545, (E)-N,N-dimethyl-4-[2-[5-[(Z)-4,4,4-trifluoro-1-(3-fluoro-1H-indazol-5-yl)-2-phenylbut-1-enyl]pyridin-2-yl]oxyethylamino]but-2-enamide]
decrease in Ki67 levels [1]: 50% | CLss/F ([2]; Dose Expansion-Fasted): 36.7 (65.4); 18 L/h | Tlag ([2]; Dose Expansion-Fasted): 0 (0-0); 18 h | AUC0-24 (per 1 mg of API) ([2]; Dose Expansion-Fasted): 27.2 ng·h/mL/mg | AUC0-inf (per 1 mg of API) ([2]; Dose Expansion-Fasted): 36.6 ng·h/mL/mg | AUC0-t (per 1 mg of API) ([2]; Dose Expansion-Fasted): 27.7 ng·h/mL/mg | Cmax (per 1 mg of API) ([2]; Dose Expansion-Fasted): 2.4 ng/mL/mg | CLss/F ([2]; Dose Expansion-Fed): 20.5 (42.7); 13 L/h | Tlag ([2]; Dose Expansion-Fed): 0 (0-0); 17 h | AUC0-24 (per 1 mg of API) ([2]; Dose Expansion-Fed): 43.3 ng·h/mL/mg | AUC0-inf (per 1 mg of API) ([2]; Dose Expansion-Fed): 56.8 ng·h/mL/mg | AUC0-t (per 1 mg of API) ([2]; Dose Expansion-Fed): 35.8 ng·h/mL/mg | Cmax (per 1 mg of API) ([2]; Dose Expansion-Fed): 3.5 ng/mL/mg | AUC(0-inf) ([2]; Dose Expansion-Fasted): 16500 ng·h/mL | Cmax ([2]; Dose Expansion-Fasted): 1090 ng/mL | half-life ([2]; Dose Expansion-Fasted): 10.9 h | AUC(0-t) ([2]; Dose Expansion-Fasted, read-out: AUC0-24): 12300 ng·h/mL | AUC(0-t) ([2]; Dose Expansion-Fasted, read-out: AUC0-t): 12500 ng·h/mL | Vd ([2]; Dose Expansion-Fasted): 597 L | Vd/F ([2]; Dose Expansion-Fasted): 566 L | Tmax ([2]; Dose Expansion-Fasted): 4 h | AUC(0-inf) ([2]; Dose Expansion-Fed): 25500 ng·h/mL | Cmax ([2]; Dose Expansion-Fed): 1560 ng/mL | half-life ([2]; Dose Expansion-Fed): 8.83 h | AUC(0-t) ([2]; Dose Expansion-Fed, read-out: AUC0-24): 19500 ng·h/mL | AUC(0-t) ([2]; Dose Expansion-Fed, read-out: AUC0-t): 16100 ng·h/mL | Vd ([2]; Dose Expansion-Fed): 350 L | Vd/F ([2]; Dose Expansion-Fed): 279 L | Tmax ([2]; Dose Expansion-Fed): 6 h | ER target gene expression [3]: inhibited ER target gene expression | Partial responses (PRs), patients [4]: 3 patients | Stable disease, % of patients [4]: 47% | patients who completed at least 6 months of treatment [4]: 34% | plasma concentration versus dose [5]: increased with dose

Source: patent publication US12702660B2, “Method for treating cancer with an oral dosage form of an estrogen receptor-alpha inhibitor” (Eisai R&D Management Co., Ltd., priority 2019, dated 2026)
